Source: patent EP3375430A1, “FRAGRANCE COMPOSITIONS” (Takasago International Corporation, priority 2017, dated 2018)
Values belong to the molecule of their own block, whether it stands above or below them.

Legend:
[1] = Amount of fragrance ingredients retained on paper blotter after evaporation (ethanol extraction, GC-MS); assay type: physicochemical
Procedure: A fragrance (hereafter fragrance TAK, the formulation of which is shown in table 1) was formulated in a typical Eau de Toilette (EdT1) or in fragrance compositions according to the invention (compositions C1 to C4), as shown in table 2. The amount of individual fragrance ingredients retained on paper substrate (blotter) after set time periods was assessed by the following method.
100µL samples of either EdT1 or compositions C1 to C4 were applied to 4.5cm long standard paper blotters with a microsyringe. Three replicate blotters were prepared for each extraction time. After the appropriate evaporation time each of the 3 blotters was transferred to a 30mL glass bottle. 3mL of ethanol and 50µL of a 1% solution of methyl decanoate in ethanol as an internal standard were added. The bottle was sealed and placed on a roller bed to extract the blotter for 1 hour. A sample of the extracting solution was transferred to a vial which was sealed and analysed by gas chromatography (GC 6890) with a Mass Spectrometer detector (MS 5973) using the method described below. The results of the three replicate measurements were averaged. At exact times the same extraction was repeated on the remaining blotters which were stored on a warm surface at 32°C open to the air to allow evaporation. The gas chromatography conditions were as given below.
• Initial Temp: 50°C • Initial Time: 2 min • Rate: 10°C /min • Final Temp: 280°C • Final Time: 5 min • Run Time: 30 min
• Column: HP-5MS 30m * 0.25mm * 0.25µm • Gas: Helium • Constant Pressure 18.55 psi
• Split mode Ratio 40:1 • Inlet Temp: 250°C
• MS 5973 • Mass range: 35 to 350 • Threshold: 100 • Mass Quad: 150°C • Mass Source: 230°C
To simplify the results the average amount of each fragrance ingredient from the 3 samples measured at time zero was set at 100% and all other measurements were then related to that value so tables 3 to 6 show decreasing amounts of fragrance ingredients as a percentage of the initial amount.
The method of example 1 was repeated using a commercial fragrance (hereafter fragrance COM1, the formulation of which is given in table 7) formulated in a typical Eau de Toilette (EdT2) or in fragrance compositions according to the invention (compositions C5 and C6), as shown in table 8.

[2] = Headspace concentration of fragrance ingredients over blotter (thermal desorption GC-MS); assay type: physicochemical
Procedure: The headspace concentration of individual ingredients of fragrance TAK, as formulated in either a conventional EdT (EdT1) or a fragrance composition of the invention (C1), was assessed by the method described below.
A 10 cm length was cut from a standard perfumers' blotter. A sample of 100µL volume was applied to the upper surface of the blotter with a syringe. The blotter was placed on a hot plate thermostatted at 32°C and left to equilibrate for 5 minutes. Two desorption tubes (6cm length 4mm internal diameter) each containing 2 cm length of Tenax TA adsorbent were fitted to the glass part of a headspace apparatus shown in figure 9. The glass part was fitted over the blotter, a metering pump was connected to one of the desorption tubes and air was drawn through the apparatus flushing the headspace over the blotter at a rate of 17mL/min. Sampling continued for about 16.5 minutes until 280mL of air had been extracted. Then the outlet desorption tube was analysed by gas chromatography as described below. The glass part was removed from the blotter which was left on the hotplate until the next sampling time when two fresh desorption tubes were fitted and the extraction procedure repeated for a further 280mL of extracted headspace.
• Initial Temp: 50°C • Initial Time: 5 min • Rate: 3°C /min • Final Temp: 250°C • Final Time: 20 min • Run Time: 91.67 min
• Column: HP-5MS 30m * 0.25mm * 0.25µm • Gas: Helium • Constant pressure 12.675 psi
• Initial Temp: -30°C • Equilibration Time: 0.05 min • Initial Time: 0.00 min • Rate 12°C / min • End Temp: 260°C • Hold Time: 10 min
Temperature program • Initial Temp: 35°C • Delay Time: 0.30 min • Initial Time: 0.00 min • Rate: 30°C / min • End Temp: 250°C • Hold Time: 5.00 min
TDU Settings • Transfer Temp: 250°C • Transfer Temp Mode: Fixed • Desorption Mode: splitless • Sample mode: Retain tube - standby cooling • Standby Temp: 50°C
Detector MS • MS 5973 • Mass range: 35 to 350 • Threshold: 150 • Mass Quad: 150°C • Mass Source: 230°C
Following the procedure of example 2, the headspace concentration of representative ingredients of fragrance COM1 was determined. COM1 was dosed at 5 and 20 % either in control EdT3 and EdT4 or in compositions of the invention C7 and C8, as shown in table 10.
The headspace concentration of individual ingredients of fragrance TAK (see Table 1), as formulated in either a conventional EdT (EdT1) or fragrance compositions of the invention (C14, C15), was assessed by the method described in example 2.

amount of fragrance ingredient retained on blotter (percentage of the initial amount) ([1]; Table 9, fragrance COM1 in C5, T0 + 15 min): 80.96% | amount of fragrance ingredient retained on blotter (percentage of the initial amount) ([1]; Table 9, fragrance COM1 in C5, T0 + 480 min): 8.4% | amount of fragrance ingredient retained on blotter (percentage of the initial amount) ([1]; Table 9, fragrance COM1 in C5, T0 +1440 min): 2.22% | amount of fragrance ingredient retained on blotter (percentage of the initial amount) ([1]; Table 9, fragrance COM1 in C6, T0 + 15 min): 70.8% | amount of fragrance ingredient retained on blotter (percentage of the initial amount) ([1]; Table 9, fragrance COM1 in C6, T0 + 480 min): 6.9% | amount of fragrance ingredient retained on blotter (percentage of the initial amount) ([1]; Table 9, fragrance COM1 in C6, T0 +1440 min): 2.6% | amount of fragrance ingredient retained on blotter (percentage of the initial amount) ([1]; Table 9, fragrance COM1 in EdT2, C5 or C6, T0, set at 100% (normalisation)): 100% | amount of fragrance ingredient retained on blotter (percentage of the initial amount) ([1]; Table 9, fragrance COM1 in EdT2, T0 + 15 min): 67.48% | amount of fragrance ingredient retained on blotter (percentage of the initial amount) ([1]; Table 9, fragrance COM1 in EdT2, T0 + 480 min): 9.91% | amount of fragrance ingredient retained on blotter (percentage of the initial amount) ([1]; Table 9, fragrance COM1 in EdT2, T0 +1440 min): 7.26% | headspace concentration in composition C8 compared to control EdT4 ([2]; COM1 dosed at 20 wt%, up to 8 hours, Figures 8 to 10): significantly higher
SMILES: C=CC(C)(O)CCC=C(C)CC (mixture of isomers) [Ethyl Linalool, Ethyl linalool]

amount of fragrance ingredient retained on blotter (percentage of the initial amount) ([1]; Table 3, fragrance TAK in C1, 15 min, 32°C): 76% | amount of fragrance ingredient retained on blotter (percentage of the initial amount) ([1]; Table 3, fragrance TAK in C1, 60 min, 32°C): 77% | amount of fragrance ingredient retained on blotter (percentage of the initial amount) ([1]; Table 3, fragrance TAK in C1, 120 min, 32°C): 75% | amount of fragrance ingredient retained on blotter (percentage of the initial amount) ([1]; Table 3, fragrance TAK in C1, 240 min, 32°C): 73% | amount of fragrance ingredient retained on blotter (percentage of the initial amount) ([1]; Table 3, fragrance TAK in C1, 480 min, 32°C): 60% | amount of fragrance ingredient retained on blotter (percentage of the initial amount) ([1]; Table 3, fragrance TAK in EdT1, 15 min, 32°C): 96% | amount of fragrance ingredient retained on blotter (percentage of the initial amount) ([1]; Table 3, fragrance TAK in EdT1, 60 min, 32°C): 87% | amount of fragrance ingredient retained on blotter (percentage of the initial amount) ([1]; Table 3, fragrance TAK in EdT1, 120 min, 32°C): 85% | amount of fragrance ingredient retained on blotter (percentage of the initial amount) ([1]; Table 3, fragrance TAK in EdT1, 240 min, 32°C): 80% | amount of fragrance ingredient retained on blotter (percentage of the initial amount) ([1]; Table 3, fragrance TAK in EdT1, 480 min, 32°C): 32% | amount of fragrance ingredient retained on blotter (percentage of the initial amount) ([1]; Table 3, fragrance TAK in EdT1 or C1, T0, set at 100% (normalisation)): 100% | amount of fragrance ingredient retained on blotter (percentage of the initial amount) ([1]; Table 4, fragrance TAK in C2, 15 min, 32°C): 99% | amount of fragrance ingredient retained on blotter (percentage of the initial amount) ([1]; Table 4, fragrance TAK in C2, 480 min, 32°C): 63% | amount of fragrance ingredient retained on blotter (percentage of the initial amount) ([1]; Table 4, fragrance TAK in EdT1, 15 min, 32°C): 84% | amount of fragrance ingredient retained on blotter (percentage of the initial amount) ([1]; Table 4, fragrance TAK in EdT1, 480 min, 32°C): 32% | amount of fragrance ingredient retained on blotter (percentage of the initial amount) ([1]; Table 4, fragrance TAK in EdT1 or C2, T0, set at 100% (normalisation)): 100% | amount of fragrance ingredient retained on blotter (percentage of the initial amount) ([1]; Table 5, fragrance TAK in C3, 15 min, 32°C): 78% | amount of fragrance ingredient retained on blotter (percentage of the initial amount) ([1]; Table 5, fragrance TAK in C3, 60 min, 32°C): 84% | amount of fragrance ingredient retained on blotter (percentage of the initial amount) ([1]; Table 5, fragrance TAK in C3, 120 min, 32°C): 83% | amount of fragrance ingredient retained on blotter (percentage of the initial amount) ([1]; Table 5, fragrance TAK in C3, 240 min, 32°C): 82% | amount of fragrance ingredient retained on blotter (percentage of the initial amount) ([1]; Table 5, fragrance TAK in C3, 480 min, 32°C): 61% | amount of fragrance ingredient retained on blotter (percentage of the initial amount) ([1]; Table 5, fragrance TAK in C3, 1440 min, 32°C): 50% | amount of fragrance ingredient retained on blotter (percentage of the initial amount) ([1]; Table 5, fragrance TAK in EdT1, 15 min, 32°C): 96% | amount of fragrance ingredient retained on blotter (percentage of the initial amount) ([1]; Table 5, fragrance TAK in EdT1, 60 min, 32°C): 87% | amount of fragrance ingredient retained on blotter (percentage of the initial amount) ([1]; Table 5, fragrance TAK in EdT1, 120 min, 32°C): 85% | amount of fragrance ingredient retained on blotter (percentage of the initial amount) ([1]; Table 5, fragrance TAK in EdT1, 240 min, 32°C): 80% | amount of fragrance ingredient retained on blotter (percentage of the initial amount) ([1]; Table 5, fragrance TAK in EdT1, 480 min, 32°C): 32% | amount of fragrance ingredient retained on blotter (percentage of the initial amount) ([1]; Table 5, fragrance TAK in EdT1, 1440 min, 32°C): 14% | amount of fragrance ingredient retained on blotter (percentage of the initial amount) ([1]; Table 5, fragrance TAK in EdT1 or C3, T0, set at 100% (normalisation)): 100% | amount of fragrance ingredient retained on blotter (percentage of the initial amount) ([1]; Table 6, fragrance TAK in C4, 15 min, 32°C): 92% | amount of fragrance ingredient retained on blotter (percentage of the initial amount) ([1]; Table 6, fragrance TAK in C4, 60 min, 32°C): 84% | amount of fragrance ingredient retained on blotter (percentage of the initial amount) ([1]; Table 6, fragrance TAK in C4, 120 min, 32°C): 93% | amount of fragrance ingredient retained on blotter (percentage of the initial amount) ([1]; Table 6, fragrance TAK in C4, 240 min, 32°C): 94% | amount of fragrance ingredient retained on blotter (percentage of the initial amount) ([1]; Table 6, fragrance TAK in C4, 480 min, 32°C): 65% | amount of fragrance ingredient retained on blotter (percentage of the initial amount) ([1]; Table 6, fragrance TAK in EdT1, 15 min, 32°C): 96% | amount of fragrance ingredient retained on blotter (percentage of the initial amount) ([1]; Table 6, fragrance TAK in EdT1, 60 min, 32°C): 87% | amount of fragrance ingredient retained on blotter (percentage of the initial amount) ([1]; Table 6, fragrance TAK in EdT1, 120 min, 32°C): 85% | amount of fragrance ingredient retained on blotter (percentage of the initial amount) ([1]; Table 6, fragrance TAK in EdT1, 240 min, 32°C): 80% | amount of fragrance ingredient retained on blotter (percentage of the initial amount) ([1]; Table 6, fragrance TAK in EdT1, 480 min, 32°C): 32% | amount of fragrance ingredient retained on blotter (percentage of the initial amount) ([1]; Table 6, fragrance TAK in EdT1 or C4, T0, set at 100% (normalisation)): 100% | headspace concentration in composition C1 compared to control EdT1 ([2]; fragrance TAK, T0 + 8h, Figure 4): lower
SMILES: CC/C=C\CCOC(=O)c1ccccc1O [Cis 3-hexenyl salicylate, Cis-3-hexenyl salicylate]
